Test results published in patent US5932410A, “Assay for the detection of proteases” (Commonwealth Scientific and Industrial Research …, priority 1994, dated 1999).
Where a SMILES comes first, the peptide text is derived from it. The star is where a group is joined. Cbz = O=C(OCc1ccccc1)*

Experiments:
Format in all cases: biochemical
[1] = target: Thrombin (Homo sapiens, UniProt P00734); assay: Esterase assay, thrombin; settings: Z-AX-OMe substrate; for Esterase rate, Thrombin: X = P1 residue, rates approximately ± 10%; for % of maximum activity, Thrombin: percentage of the maximum activity
Excerpt: (§1) Advantage was taken of this activity to develop an "esterase" assay which uses a pH indicator to visualise the hydrogen ion release caused by the action of proteases on peptide-ester substrates. A series of twenty compounds of the form, carbobenzoxy alanyl-X-methyl ester (Z-AX-OMe) were synthesised where "X" is one of the naturally occurring amino acids. These substrates were used in a 96 well microtitre plate assay to screen each mutant enzyme for activity and specificity. The reactions were followed visually or quantified using a standard ELISA plate reader. The esterase assay, using trypsin as a test enzyme and Z-Ala-Arg-OMe as substrate, was more sensitive as than traditional trypsin substrates (three times the rate obtained with benzoyl arginine ethyl aster and twenty times the rate of benzoyl arginine p-nitroanilide) (Whittaker et al., Analytical Biochemistry, 220, 238-243, 1994).
(§2) The present inventors produced a panel of substrates carbobenzoxy alanyl-X-methyl eater (Z-AX-OMe) where X is one of the naturally occurring amino acids. The reactivity of these substrates with a number of serine proteases is set out in Table 1 and FIG. 1.
(§3) Rates are A580 change/min./mg protease. Rates are also shown as a […]

[2] = target: α-Lytic protease (Lysobacter enzymogenes, UniProt P00778); assay: Esterase assay, α-lytic protease; settings: Z-AX-OMe substrate; for Esterase rate, α-Lytic protease: X = P1 residue, rates approximately ± 10%; for % activity, α-Lytic protease: normalised to alanine
Excerpt: as §1, §2, §3

[3] = target: Chymotrypsin (Bos taurus, UniProt P00766); assay: Esterase assay, chymotrypsin; settings: Z-AX-OMe substrate; for Esterase rate, Chymotrypsin: X = P1 residue, rates approximately ± 10%; for % of maximum activity, Chymotrypsin: percentage of the maximum activity
Excerpt: as §1, §2, §3

[4] = tested on: Trypsin; assay: Esterase assay, trypsin; settings: Z-AX-OMe substrate; for Esterase rate, Trypsin: X = P1 residue, rates approximately ± 10%; for % of maximum activity, Trypsin: percentage of the maximum activity
Excerpt: as §1, §2, §3

[5] = tested on: Subtilisin; assay: Esterase assay, subtilisin; settings: Z-AX-OMe substrate; for Esterase rate, Subtilisin: X = P1 residue, rates approximately ± 10%; for % of maximum activity, Subtilisin: percentage of the maximum activity
Excerpt: as §1, §2, §3

[6] = target: Elastase (Sus scrofa, UniProt P00772); assay: Esterase assay, elastase; settings: Z-AX-OMe substrate; for Esterase rate, Elastase: X = P1 residue, rates approximately ± 10%; for % activity, Elastase: normalised to alanine
Excerpt: as §1, §2, §3

[7] = target: Proteinase K (Parengyodontium album, UniProt P06873); assay: Esterase assay, proteinase K; settings: Z-AX-OMe substrate; for Esterase rate, Proteinase K: X = P1 residue, rates approximately ± 10%; for % of maximum activity, Proteinase K: percentage of the maximum activity
Excerpt: as §1, §2, §3

Proteinase K, sequence (P06873 106-384): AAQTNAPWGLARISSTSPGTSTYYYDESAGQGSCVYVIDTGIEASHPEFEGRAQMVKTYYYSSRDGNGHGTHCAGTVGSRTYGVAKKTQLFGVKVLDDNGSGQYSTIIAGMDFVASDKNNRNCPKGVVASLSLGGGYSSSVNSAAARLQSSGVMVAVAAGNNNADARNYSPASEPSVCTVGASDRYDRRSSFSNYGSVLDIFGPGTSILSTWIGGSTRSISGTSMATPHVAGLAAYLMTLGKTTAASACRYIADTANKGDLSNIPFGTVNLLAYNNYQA
α-Lytic protease, sequence (P00778 25-397 limits assumed): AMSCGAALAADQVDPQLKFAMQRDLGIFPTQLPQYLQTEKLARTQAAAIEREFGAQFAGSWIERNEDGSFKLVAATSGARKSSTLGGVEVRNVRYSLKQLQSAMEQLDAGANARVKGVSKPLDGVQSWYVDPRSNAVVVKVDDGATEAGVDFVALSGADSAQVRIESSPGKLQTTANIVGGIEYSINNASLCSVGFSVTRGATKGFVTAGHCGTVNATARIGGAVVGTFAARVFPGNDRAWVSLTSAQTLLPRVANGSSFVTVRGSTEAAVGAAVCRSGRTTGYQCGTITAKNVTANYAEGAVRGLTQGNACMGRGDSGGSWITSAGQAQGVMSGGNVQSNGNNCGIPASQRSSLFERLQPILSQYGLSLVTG
Elastase, sequence (P00772 27-266): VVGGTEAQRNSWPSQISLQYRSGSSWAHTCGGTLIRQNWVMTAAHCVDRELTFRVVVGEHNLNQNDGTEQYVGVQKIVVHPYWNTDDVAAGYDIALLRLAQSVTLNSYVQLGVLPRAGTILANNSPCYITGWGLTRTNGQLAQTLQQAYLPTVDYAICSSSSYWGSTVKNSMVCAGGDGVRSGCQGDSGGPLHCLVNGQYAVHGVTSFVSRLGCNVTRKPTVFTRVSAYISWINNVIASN

Compound	Esterase rate, Thrombin [1]	% of maximum activity, Thrombin [1] [%]	Esterase rate, α-Lytic protease [2]	% activity, α-Lytic protease [2] [%]	Esterase rate, Chymotrypsin [3]	Esterase rate, Trypsin [4]	% of maximum activity, Trypsin [4] [%]	Esterase rate, Subtilisin [5]	% of maximum activity, Subtilisin [5] [%]	Esterase rate, Elastase [6]	% activity, Elastase [6] [%]	Esterase rate, Proteinase K [7]	% of maximum activity, Proteinase K [7] [%]	% of maximum activity, Chymotrypsin [3] [%]
COC(=O)[C@H](C)NC(=O)[C@H](C)NC(=O)OCc1ccccc1 [Ala] (Cbz-Ala-Ala-OMe)	0 A580 change/min./mg protease	0	6.2 A580 change/min./mg protease	100	trace	0 A580 change/min./mg protease	0	1536 A580 change/min./mg protease	73.8	15.7 A580 change/min./mg protease	100	775 A580 change/min./mg protease	100	
COC(=O)[C@H](CC(N)=O)NC(=O)[C@H](C)NC(=O)OCc1ccccc1 [Asn] (Cbz-Ala-Asn-OMe)	0 A580 change/min./mg protease	0	0 A580 change/min./mg protease	0	0.3 A580 change/min./mg protease	0 A580 change/min./mg protease	0	244 A580 change/min./mg protease	11.4	0 A580 change/min./mg protease	0	137 A580 change/min./mg protease	17.7	0.5
COC(=O)[C@H](CC(=O)O)NC(=O)[C@H](C)NC(=O)OCc1ccccc1 [Asp] (Cbz-Ala-Asp-OMe)	0 A580 change/min./mg protease	0	0 A580 change/min./mg protease	0	0 A580 change/min./mg protease	0 A580 change/min./mg protease	0	trace		0 A580 change/min./mg protease	0	18 A580 change/min./mg protease	2.3	0
COC(=O)[C@H](CS)NC(=O)[C@H](C)NC(=O)OCc1ccccc1 [Cys] (Cbz-Ala-Cys-OMe)	0 A580 change/min./mg protease	0	8.5 A580 change/min./mg protease	137.1	0.4 A580 change/min./mg protease	0 A580 change/min./mg protease	0	1251 A580 change/min./mg protease	58.2	86.1 A580 change/min./mg protease	548.4	392 A580 change/min./mg protease	50.6	0.7
COC(=O)[C@H](CCC(N)=O)NC(=O)[C@H](C)NC(=O)OCc1ccccc1 [Gln] (Cbz-Ala-Gln-OMe)	0 A580 change/min./mg protease	0	0 A580 change/min./mg protease	0	0.5 A580 change/min./mg protease	0 A580 change/min./mg protease	0	1308 A580 change/min./mg protease	60.9	0 A580 change/min./mg protease	0	553 A580 change/min./mg protease	71.4	0.9
COC(=O)[C@H](CCC(=O)O)NC(=O)[C@H](C)NC(=O)OCc1ccccc1 [Glu] (Cbz-Ala-Glu-OMe)	0 A580 change/min./mg protease	0	0 A580 change/min./mg protease	0	0 A580 change/min./mg protease	0 A580 change/min./mg protease	0	83 A580 change/min./mg protease	3.9	0 A580 change/min./mg protease	0	97 A580 change/min./mg protease	12.5	0
COC(=O)CNC(=O)[C@H](C)NC(=O)OCc1ccccc1 [Gly] (Cbz-Ala-Gly-OMe)	0 A580 change/min./mg protease	0	0 A580 change/min./mg protease	0	0 A580 change/min./mg protease	0 A580 change/min./mg protease	0	22 A580 change/min./mg protease	1.0	0 A580 change/min./mg protease	0	58 A580 change/min./mg protease	7.5	0
COC(=O)[C@H](Cc1cnc[nH]1)NC(=O)[C@H](C)NC(=O)OCc1ccccc1 [His] (Cbz-Ala-His-OMe)	trace		0 A580 change/min./mg protease	0	1.5 A580 change/min./mg protease	3.0 A580 change/min./mg protease	0.8	249 A580 change/min./mg protease	11.6	0 A580 change/min./mg protease	0	203 A580 change/min./mg protease	26.2	2.7
CC[C@H](C)[C@H](NC(=O)[C@H](C)NC(=O)OCc1ccccc1)C(=O)OC [Ile] (Cbz-Ala-Ile-OMe)	0 A580 change/min./mg protease	0	0 A580 change/min./mg protease	0	0 A580 change/min./mg protease	0 A580 change/min./mg protease	0	16 A580 change/min./mg protease	0.7	1.7 A580 change/min./mg protease	11.0	5 A580 change/min./mg protease	0.6	0
COC(=O)[C@H](CC(C)C)NC(=O)[C@H](C)NC(=O)OCc1ccccc1 [Leu] (Cbz-Ala-Leu-OMe)	0 A580 change/min./mg protease	0	0 A580 change/min./mg protease	0	2.4 A580 change/min./mg protease	0 A580 change/min./mg protease	0	1329 A580 change/min./mg protease	61.8	3.4 A580 change/min./mg protease	21.7	240 A580 change/min./mg protease	31.0	4.3
COC(=O)[C@H](CCCCN)NC(=O)[C@H](C)NC(=O)OCc1ccccc1 [Lys] (Cbz-Ala-Lys-OMe)	4.3 A580 change/min./mg protease	49.0	0 A580 change/min./mg protease	0	1.5 A580 change/min./mg protease	155.8 A580 change/min./mg protease	44.0	153 A580 change/min./mg protease	7.1	0 A580 change/min./mg protease	0	61 A580 change/min./mg protease	7.9	2.7
